Source: article PMC10648875 (Antimicrobial Agents and Chemotherapy, 2023)
Values after ≈ are worked out from the molar mass of the structure shown. Where two headings read alike, the source gives them in different places. One block for each compound: values may come before it.

Key:
[1] = target: NDM-1 (Klebsiella pneumoniae, UniProt C7C422); assay: biochemical
Description: (§1) The majority of purified β-lactamase enzymes used in the study were either expressed and purified internally ([35]) or obtained from Emerald Biostructures (Bainbridge Island, WA, USA). L1 enzyme was purified as described in reference ([36]).
(§2) Enzymes were mixed with BLIs at concentrations varying from 160 to 0.0027 µM in 50-mM Na-phosphate pH7.0, 0.1-mg/mL bovide serum albumin (BSA) (buffer A; 20-µM ZnCl2 was also added for all metalloenzymes) and incubated for 10 minutes at 37°C. Nitrocefin (50 µM) (10 µM for SHV-12) or 100 µM of imipenem (prewarmed at 37°C for 10 minutes) was added, and substrate cleavage profiles were recorded at 37°C at 490 nm every 10 seconds for 10 minutes or at 294 nm every 30 seconds for 1 hour for nitrocefin and imipenem, respectively. […] Ki app values (Ki for metalloenzymes) were calculated by the method of Waley ([37]).

[2] = target: CTX-M-15 (Escherichia coli, UniProt Q9EXV5); assay: Ki app of β-lactamase inhibition, purified enzyme; format: biochemical; details: 10-minute preincubation; nitrocefin substrate
Chain of CTX-M-15 (Q9EXV5 entry or part of it): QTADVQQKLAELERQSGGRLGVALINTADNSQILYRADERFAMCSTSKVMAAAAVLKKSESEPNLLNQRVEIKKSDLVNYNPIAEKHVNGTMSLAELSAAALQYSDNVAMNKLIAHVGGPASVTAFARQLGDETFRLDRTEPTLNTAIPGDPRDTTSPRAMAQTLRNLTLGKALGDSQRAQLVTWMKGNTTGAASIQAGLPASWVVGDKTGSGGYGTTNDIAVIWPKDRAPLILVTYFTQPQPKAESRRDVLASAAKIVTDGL
Description: as §1, §2

[3] = target: SHV-12 (Klebsiella pneumoniae, UniProt P0AD64, E235K/G234S/L31Q); assay: Ki app of β-lactamase inhibition, purified enzyme; format: biochemical
Chain of SHV-12 (P0AD64 22-286 L31Q/G234S/E235K): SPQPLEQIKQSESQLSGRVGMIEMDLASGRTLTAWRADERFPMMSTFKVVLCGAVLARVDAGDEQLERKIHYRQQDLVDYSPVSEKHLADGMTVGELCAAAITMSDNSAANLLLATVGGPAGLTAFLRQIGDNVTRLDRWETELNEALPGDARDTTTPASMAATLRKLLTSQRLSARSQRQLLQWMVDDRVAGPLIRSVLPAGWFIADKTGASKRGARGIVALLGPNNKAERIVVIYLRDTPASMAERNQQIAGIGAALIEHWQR
Description: as §1, §2

[4] = target: CTX-M-14 (Escherichia coli, UniProt Q9L5C7); assay: Ki app of β-lactamase inhibition, purified enzyme; format: biochemical; details: 10-minute preincubation; nitrocefin substrate
Chain of CTX-M-14 (Q9L5C7 entry or part of it): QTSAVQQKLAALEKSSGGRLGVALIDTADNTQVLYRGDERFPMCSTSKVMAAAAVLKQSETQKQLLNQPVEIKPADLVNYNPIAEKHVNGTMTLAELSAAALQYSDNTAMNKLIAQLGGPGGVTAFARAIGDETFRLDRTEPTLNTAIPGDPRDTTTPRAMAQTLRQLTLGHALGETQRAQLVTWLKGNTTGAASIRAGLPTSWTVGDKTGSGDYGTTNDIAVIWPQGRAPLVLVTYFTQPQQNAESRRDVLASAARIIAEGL
Description: as §1, §2

[5] = target: P99 (Enterobacter cloacae, UniProt P05364); assay: Ki app of β-lactamase inhibition, purified enzyme; format: biochemical
Chain of P99 (P05364 21-381): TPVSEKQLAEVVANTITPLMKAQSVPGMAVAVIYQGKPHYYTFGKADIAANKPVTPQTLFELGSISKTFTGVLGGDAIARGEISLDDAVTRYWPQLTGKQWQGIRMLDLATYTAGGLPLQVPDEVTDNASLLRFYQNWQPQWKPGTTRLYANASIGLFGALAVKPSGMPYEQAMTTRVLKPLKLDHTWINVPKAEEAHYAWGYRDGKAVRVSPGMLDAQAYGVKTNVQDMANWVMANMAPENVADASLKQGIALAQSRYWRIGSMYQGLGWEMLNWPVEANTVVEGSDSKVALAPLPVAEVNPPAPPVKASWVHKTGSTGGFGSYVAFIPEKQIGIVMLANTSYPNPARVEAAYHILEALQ
Description: as §1, §2

[6] = system: K. pneumoniae CDC 0135 (KP1291), VIM-1; assay: MIC, reference strain; format: cell-based; details: Klebsiella pneumoniae, BLI at the fixed concentration in brackets, read-out: MIC
Description: (§3) Other BL/BLI combinations were tested at their recommended BLI concentrations. MIC values for the partner antibiotics and BLIs alone were also determined (Table 2; Table S1). All investigational and marketed BLIs enhanced the potency of antibiotics according to their spectrum of inhibition. MIC values against CLSI-approved QC strains were within acceptable ranges for drugs and combinations tested (Table 3).
(§4) Isolates were tested for antimicrobial susceptibility using the broth microdilution methodology per CLSI M07 (2018) guidelines ([40]). JMI Laboratories produced frozen-form 96-well panels with cation-adjusted Mueller-Hinton broth as the testing medium. Current CLSI quality assurance practices were followed when performing the susceptibility tests. MIC values were validated by concurrently testing the following CLSI-recommended ([27]) QC reference strains: E. coli NCTC 13353 (CTX-M-15), Klebsiella pneumoniae ATCC BAA-2814 (KPC-3), Klebsiella pneumoniae ATCC BAA-1705 (KPC-2), and K. pneumoniae ATCC 700603 (SHV-18). The inoculum density during susceptibility testing was monitored by bacterial colony counts. Where applicable, QC ranges for tested reference strains were those approved or published by the CLSI ([27]).

[7] = system: K. pneumoniae ATCC BAA-2814 (KP1074), KPC-3; assay: MIC, reference strain; format: cell-based; details: Klebsiella pneumoniae, ATCCBAA2814; KPC-3; BLI at the fixed concentration in brackets; read-out: MIC
Description: as §3, §4

[8] = system: E. coli CDC 0069 (EC1106), NDM-1; assay: MIC, reference strain; format: cell-based; details: Escherichia coli, BLI at the fixed concentration in brackets, read-out: MIC
Description: as §3, §4

[9] = system: K. pneumoniae ATCC BAA-1705 (KPM1123), KPC-2; assay: MIC, reference strain; format: cell-based; details: Klebsiella pneumoniae, ATCCBAA1705; KPC-2; BLI at the fixed concentration in brackets; read-out: MIC
Description: as §3, §4

[10] = system: Klebsiella pneumoniae ATCC 700603 (KPM2881), SHV-18; assay: MIC, reference strain; format: cell-based; details: Klebsiella pneumoniae, ATCC700603; SHV-18; BLI at the fixed concentration in brackets; read-out: MIC
Description: as §3, §4

[11] = target: IMP-1 (Serratia marcescens, UniProt P52699); assay: Ki of metallo-β-lactamase inhibition, purified enzyme; format: biochemical
Chain of IMP-1 (P52699 19-246 limits assumed): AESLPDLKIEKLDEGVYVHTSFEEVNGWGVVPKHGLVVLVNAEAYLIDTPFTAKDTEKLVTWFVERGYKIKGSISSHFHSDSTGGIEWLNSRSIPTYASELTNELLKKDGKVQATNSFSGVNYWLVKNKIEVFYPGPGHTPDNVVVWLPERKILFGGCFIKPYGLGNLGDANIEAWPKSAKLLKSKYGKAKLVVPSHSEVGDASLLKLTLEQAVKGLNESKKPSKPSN
Description: as §1, §2

[12] = target: VIM-1 (Pseudomonas aeruginosa, UniProt A0A0F7KYQ8); assay: as above; format: biochemical; details: 10-minute preincubation; nitrocefin substrate
Description: as §1, §2

[13] = system: P. aeruginosa BAA-3197 (PA5257), KPC-2; assay: MIC, reference strain; format: cell-based; details: Pseudomonas aeruginosa, BAA3197; KPC-2; BLI at the fixed concentration in brackets; read-out: MIC
[14] = system: Escherichia coli NCTC 13353 (ECM7514), CTX-M-15; assay: MIC, reference strain; format: cell-based; details: Escherichia coli, NCTC13353
Description: as §3
as §4, with “([27]). Meropenem was purchased from Carbosynth; ceftolozane was synthesized at Acme Bioscience, Palo Alto, CA, USA; all other antibiotics were from Sigma Aldrich. Xeruborbactam was synthesized at Qpex Biopharma, San Diego, CA, USA. Avibactam was purchased from eNovation, Chemicals LLC, Bridgewater, NJ, USA. Vaborbactam was synthesized at The Medicines Company, San Diego, CA. Relebactam, taniborbactam, and […] were synthesized at Acme Bioscience.” for “([27]).”

[15] = system: ESBL-producing Enterobacterales; assay: organism not typed; format: cell-based; details: ESBL (N = 521); xeruborbactam and vaborbactam fixed 8 mg/L, all other BLIs 4 mg/L
[16] = system: carbapenem-resistant Enterobacterales (subset of 507 isolates); assay: organism not typed; format: cell-based; details: xeruborbactam and vaborbactam fixed 8 mg/L, all other BLIs 4 mg/L
[17] = system: ESBL-producing and carbapenem-resistant Enterobacterales (All, N = 1028); assay: organism not typed; format: cell-based; details: All (N = 1028); xeruborbactam and vaborbactam fixed 8 mg/L, all other BLIs 4 mg/L
[18] = target: KPC-2 (Klebsiella pneumoniae, UniProt Q9F663); assay: Ki app of β-lactamase inhibition, purified enzyme; format: biochemical; details: 10-minute preincubation; nitrocefin substrate
Chain of KPC-2 (Q9F663 25-293 limits assumed): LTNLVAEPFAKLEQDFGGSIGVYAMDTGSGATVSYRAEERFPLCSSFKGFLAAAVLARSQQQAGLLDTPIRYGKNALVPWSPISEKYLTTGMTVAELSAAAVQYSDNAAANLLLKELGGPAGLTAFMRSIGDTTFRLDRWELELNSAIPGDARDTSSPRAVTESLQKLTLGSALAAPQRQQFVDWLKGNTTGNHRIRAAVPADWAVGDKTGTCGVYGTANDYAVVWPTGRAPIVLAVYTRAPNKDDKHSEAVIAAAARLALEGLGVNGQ
Description: as §1, §2

[19] = target: OXA-23 (Acinetobacter baumannii, UniProt Q9L4P2); assay: Ki app of β-lactamase inhibition, purified enzyme; format: biochemical; details: 10-minute preincubation; nitrocefin substrate
Chain of OXA-23 (Q9L4P2 18-273): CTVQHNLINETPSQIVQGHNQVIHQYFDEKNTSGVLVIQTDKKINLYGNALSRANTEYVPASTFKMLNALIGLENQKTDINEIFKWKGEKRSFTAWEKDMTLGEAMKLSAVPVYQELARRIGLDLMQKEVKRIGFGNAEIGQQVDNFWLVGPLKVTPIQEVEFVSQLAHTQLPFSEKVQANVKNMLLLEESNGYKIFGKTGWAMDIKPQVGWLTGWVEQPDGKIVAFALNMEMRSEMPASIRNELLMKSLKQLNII
Description: as §1, §2

[20] = target: OXA-48 (Klebsiella pneumoniae, UniProt Q6XEC0); assay: Ki app of β-lactamase inhibition, purified enzyme; format: biochemical, Enterobacterales; details: 10-minute preincubation; nitrocefin substrate
Chain of OXA-48 (Q6XEC0 23-265 limits assumed): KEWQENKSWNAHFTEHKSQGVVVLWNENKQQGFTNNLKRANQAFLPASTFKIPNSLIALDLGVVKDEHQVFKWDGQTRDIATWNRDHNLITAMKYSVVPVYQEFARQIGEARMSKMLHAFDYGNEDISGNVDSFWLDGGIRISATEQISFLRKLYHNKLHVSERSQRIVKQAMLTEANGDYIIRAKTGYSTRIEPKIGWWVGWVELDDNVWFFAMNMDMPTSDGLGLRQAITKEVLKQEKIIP
Description: as §1, §2

[21] = CTX-M-15, BLI at the fixed concentration in brackets, read-out: MIC
[22] = 10-minute preincubation, nitrocefin substrate, read-out: Ki app

Chain of NDM-1 (C7C422 29-270 limits assumed): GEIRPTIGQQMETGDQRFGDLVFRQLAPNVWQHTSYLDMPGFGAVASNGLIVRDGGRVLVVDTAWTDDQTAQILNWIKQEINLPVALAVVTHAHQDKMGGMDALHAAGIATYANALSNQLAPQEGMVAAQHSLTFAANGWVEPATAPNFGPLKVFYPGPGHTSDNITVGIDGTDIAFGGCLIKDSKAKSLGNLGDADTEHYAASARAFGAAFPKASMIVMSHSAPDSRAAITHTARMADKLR

Compound: NC(=O)[C@@H]1CC[C@@H]2CN1C(=O)N2OS(=O)(=O)O [Avibactam, avibactam]
Ki [1]: > 160000 nM
Ki [2]: 0.18 ± 0.08 nM
Ki [3]: 0.24 ± 0.07 nM
Ki [4]: 0.41 ± 0.13 nM
Ki ([5]; Ki app): 10 ± 2 nM
MIC [6]: > 64 µg/mL
MIC [7]: 64 µg/mL
MIC [8]: 8 µg/mL
MIC [9]: 16 µg/mL
MIC [10]: 32 µg/mL
Ki [11]: > 160000 nM
Ki [12]: > 160000 nM
MIC [13]: > 64 µg/mL
MIC [14, 21]: 16 µg/mL

Compound: O=C(O)C[C@@H]1CC[C@H](NC(=O)Cc2cccs2)B(O)O1 [Vaborbactam, vaborbactam]
Ki [3, 22]: 21 ± 4 nM
MIC [6]: > 64 µg/mL
MIC [7]: > 64 µg/mL
MIC [8]: > 64 µg/mL
MIC [9]: > 64 µg/mL
MIC [10]: > 64 µg/mL
Ki [11]: > 160000 nM
MIC [13]: > 64 µg/mL
MIC [14, 21]: > 64 µg/mL

Compound: CO/N=C(\C(=O)N[C@@H]1C(=O)N2C(C(=O)O)=C(CSc3nc(=O)c(O)nn3C)CS[C@H]12)c1csc(N)n1 [CRO]
MIC50 [15]: >32 µg/mL
MIC90 [15]: >32 µg/mL
MIC50 ([16]; CRE (N = 507)): >32 µg/mL
MIC90 ([16]; CRE (N = 507)): >32 µg/mL
MIC50 ([16]; KPC (N = 193)): >32 µg/mL
MIC90 ([16]; KPC (N = 193)): >32 µg/mL
MIC50 ([16]; MBL (N = 168)): >32 µg/mL
MIC90 ([16]; MBL (N = 168)): >32 µg/mL
MIC50 ([16]; Non-CP CRE (N = 50)): >32 µg/mL
MIC90 ([16]; Non-CP CRE (N = 50)): >32 µg/mL
MIC50 ([16]; OXA-48-like (N = 96)): >32 µg/mL
MIC90 ([16]; OXA-48-like (N = 96)): >32 µg/mL
MIC50 [17]: >32 µg/mL
MIC90 [17]: >32 µg/mL

Compound: C[C@@H](O)[C@H]1C(=O)N2C(C(=O)O)=C(SCCN=CN)C[C@H]12 [IMP, imipenem]
MIC [6]: 8 µg/mL
MIC [7]: 64 µg/mL
MIC [8]: 16 µg/mL
MIC [9]: 8 µg/mL
MIC [10]: 0.06 µg/mL
MIC [13]: > 64 µg/mL
MIC [14]: 0.125 µg/mL

MIC [6]: > 64 µg/mL
MIC [7]: > 64 µg/mL
MIC [8]: > 64 µg/mL
MIC [9]: 64 µg/mL
MIC [10]: 16 µg/mL
MIC [13]: > 64 µg/mL
MIC [14, 21]: 64 µg/mL
Compound: CC(C)(O/N=C(\C(=O)N[C@@H]1C(=O)N2C(C(=O)[O-])=C(C[n+]3ccccc3)CS[C@H]12)c1csc(N)n1)C(=O)O [CAZ, ceftazidime]

Compound: CC1=C[C@@H]2CN(C(=O)N2OS(=O)(=O)O)[C@@H]1C(N)=O [Durlobactam, durlobactam]
Ki [1]: > 160000 nM
Ki [18]: 1.7 ± 0.4 nM
Ki [2]: 0.21 ± 0.12 nM
Ki [19]: 94 ± 32 nM
Ki [4]: 0.37 ± 0.16 nM
Ki [5, 22]: 0.17 ± 0.08 nM
Ki [20]: 0.72 ± 0.27 nM
Ki [11]: > 160000 nM
Ki [12]: > 160000 nM

MIC [6]: > 64 µg/mL
MIC [7]: > 64 µg/mL
MIC [8]: > 64 µg/mL
MIC [9]: 64 µg/mL
MIC [10]: 8 µg/mL
MIC [13]: 32 µg/mL (≈ 48 µM)
MIC [14, 21]: > 64 µg/mL
Compound: Cn1c(N)c(NC(=O)NCCN)c[n+]1CC1=C(C(=O)O)N2C(=O)[C@@H](NC(=O)/C(=N\OC(C)(C)C(=O)[O-])c3nsc(N)n3)[C@H]2SC1 [TOL, ceftolozane]

Compound: C[C@@H](O)[C@H]1C(=O)N2C(C(=O)O)=C(S[C@@H]3CN[C@H](C(=O)Nc4cccc(C(=O)O)c4)C3)[C@H](C)[C@H]12 [ETP]
MIC50 [15]: 0.06 µg/mL
MIC90 [15]: 0.5 µg/mL
MIC50 ([16]; CRE (N = 507)): >32 µg/mL
MIC90 ([16]; CRE (N = 507)): >32 µg/mL
MIC50 ([16]; KPC (N = 193)): >32 µg/mL
MIC90 ([16]; KPC (N = 193)): >32 µg/mL
MIC50 ([16]; MBL (N = 168)): >32 µg/mL
MIC90 ([16]; MBL (N = 168)): >32 µg/mL
MIC50 ([16]; Non-CP CRE (N = 50)): >32 µg/mL
MIC90 ([16]; Non-CP CRE (N = 50)): >32 µg/mL
MIC50 ([16]; OXA-48-like (N = 96)): >32 µg/mL
MIC90 ([16]; OXA-48-like (N = 96)): >32 µg/mL
MIC50 [17]: 4 µg/mL
MIC90 [17]: >32 µg/mL

Compound: O=C(NC1CCNCC1)[C@@H]1CC[C@@H]2CN1C(=O)N2OS(=O)(=O)O [Relebactam, relebactam]
Ki [1]: > 160000 nM
Ki [2]: 24 ± 1 nM
Ki [3]: 36 ± 6 nM
Ki [4]: 10 ± 3 nM
Ki [5, 22]: 14 ± 2 nM
MIC [6]: > 64 µg/mL
MIC [7]: > 64 µg/mL
MIC [8]: > 64 µg/mL
MIC [9]: > 64 µg/mL
MIC [10]: > 64 µg/mL
Ki [11]: > 160000 nM
Ki [12]: > 160000 nM
MIC [13]: > 64 µg/mL
MIC [14, 21]: > 64 µg/mL
